From the supplement of paper PMC10307832

Columns and labels:
[1] = compound: CC(C)(C)c1cc(NC(=O)Nc2ccc(-c3cn4c(n3)sc3cc(OCCN5CCOCC5)ccc34)cc2)no1 [Quizartinib] + Cc1cc(Nc2cc(N3CCN(C)CC3)nc(Sc3ccc(NC(=O)C4CC4)cc3)n2)n[nH]1 [Tozasertib] (partner 0.1 µM); assay: relative viability (nuclei count vs DMSO), 5 days (fraction); higher = more cells survive
Summary of the method: (§1)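 Lung cancer cell lines were pin-tool dosed in 1536-well plates on the day after seeding, with either a lone drug or a fixed anchor-drug dose plus five library-drug doses (not always all listed) in √10 steps. Nuclei were counted on 4× images after 5 days. Relative viability is the ratio of treated-well to vehicle-well nuclei counts, with each value a median of duplicate plates.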

[2] = compound: CC(C)(C)c1cc(NC(=O)Nc2ccc(-c3cn4c(n3)sc3cc(OCCN5CCOCC5)ccc34)cc2)no1 [Quizartinib] + CC(=O)Nc1cccc(-n2c(=O)n(C3CC3)c(=O)c3c(Nc4ccc(I)cc4F)n(C)c(=O)c(C)c32)c1 [Trametinib] (partner 0.02 µM); assay: as above
Summary of the method: as §1

In the case of NCI-H1648, the relative viability ([1]; first compound 0.01 µM) was 0.38, the relative viability ([1]; first compound 0.03162 µM) was 0.341 and the relative viability ([1]; first compound 0.1 µM) was 0.585. The relative viability ([2]; first compound 0.003162 µM) was 0.401, the relative viability ([2]; first compound 0.03162 µM) was 0.581 and the relative viability ([2]; first compound 0.1 µM) was 0.486.
